Assay results published in patent US20110065632A1, “PHARMACEUTICAL COMPOSITIONS OF SOMATOSTATIN-DOPAMINE CONJUGATES” (priority 2008, published 2011).
Where two headings read alike, the source gives them in different places. Numbered stars: 1 amine (or outer) side, 2 acyl side, 3 side chain; on linkers, the order of the positions; unused ones are H or OH. Bridge positions count the residues as written; N and C are the ends. Square brackets hold non-standard residues; d marks the D form. Peptide text beside a SMILES is read from it. * marks the point of attachment. X3 = CCCN1C[C@H](CSCC(=O)Oc2ccc(C[C@H](N[*:1])C(=O)[*:2])cc2I)C[C@@H]2c3cccc4[nH]cc(c34)C[C@H]21; X1 = CCCN1C[C@H](CSCC(=O)*)C[C@@H]2c3cccc4[nH]cc(c34)C[C@H]21; Abu = CC[C@H](N)C(=O)O; AEEA = NCCOCCOCC(=O)O

Assays:
[1] = target: T1, hsst1 (Homo sapiens, UniProt P30872); experiment: Somatostatin receptor radioligand binding assay, hsst1
T1 construct: expressed in transfected cells
T1 sequence (P30872 whole entry): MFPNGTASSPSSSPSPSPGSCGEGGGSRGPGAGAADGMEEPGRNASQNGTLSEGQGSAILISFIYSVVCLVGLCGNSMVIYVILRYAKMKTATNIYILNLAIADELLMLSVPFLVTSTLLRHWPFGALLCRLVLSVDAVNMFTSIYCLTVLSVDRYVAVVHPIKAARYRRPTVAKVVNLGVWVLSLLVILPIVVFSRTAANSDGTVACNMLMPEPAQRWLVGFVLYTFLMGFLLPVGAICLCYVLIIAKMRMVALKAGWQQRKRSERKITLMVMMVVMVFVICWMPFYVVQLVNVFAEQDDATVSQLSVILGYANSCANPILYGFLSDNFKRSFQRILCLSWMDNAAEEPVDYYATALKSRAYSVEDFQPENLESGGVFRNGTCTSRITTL
Protocol: (§1) Specificity and selectivity of the somatostatin analogues used to synthesize the somatostatin-dopamine chimers were determined by a radioligand binding assay on CHO-K1 cells stably transfected with each of the SSTR subtypes, as follows. Somatostatin analogs are also described in U.S. Patent Application Publication No. 02210006790. The complete coding sequences of genomic fragments of the SSTR 1 (e.g., Genbank accession No. M81829), SSTR 2 (e.g., Genbank accession No. M81830), SSTR 3 (e.g., Genbank accession No. L07062), and SSTR 4 (e.g., Genbank accession No. AL049651) genes and a cDNA clone for SSTR 5 (e.g., Genbank accession No. D16827) was subcloned into the mammalian expression vector pCMV (Life Technologies, Milano, Italy). Other SSTR sequences are known to the skilled artisan. Clonal cell lines stably expressing SSTR's 1-5 were obtained by transfection into CHO-K1 cells (ATCC, Manassas, Va., USA) using the calcium phosphate co-precipitation method (Davis L, et al., 1994 In: Basic methods in Molecular Biology, 2nd edition, Appleton & Lange, Norwalk, Conn., USA: 611-646). The plasmid pRSV-neo (ATCC) was included as a selectable marker. Clonal cell lines were selected in RPMI 1640 media containing 0.5 mg/mL of G418 (Life Technologies, Milano, Italy), ring cloned, and expanded into culture.
(§2) Membranes for in vitro receptor binding assays were obtained by homogenizing the CHO-K1 cells expressing the SSTR's subtypes in ice-cold 50 mM Tris-HCl and centrifuging twice at 39,000 g (10 min), with an intermediate resuspension in fresh buffer. The final pellets were resuspended in 10 mM Tris-HCl for assay.
(§3) For the SSTR 1, 3, 4, and 5 assays, aliquots of the membrane preparations were incubated 90 minutes at 25° C. with 0.05 nM [^125I-Tyr11]SS-14 in 50 mM HEPES (pH 7.4) containing 10 mg/mL BSA, 5 mM MgCl2, 200 KIU/mL Trasylol, 0.02 mg/mL bacitracin, and 0.02 mg/mL phenylmethylsuphonyl fluoride. The final assay volume was 0.3 mL.
(§4) For the SSTR 2 assay, 0.05 nM [^125I]MK-678 was employed as the radioligand and the incubation time was 90 minutes at 25° C. The incubations were terminated by rapid filtration through GF/C glass microfiber filters (Whatman Co.) (pre-soaked in 0.3% polyethylenimine) using a BRANDEL filtration manifold. Each tube and filter was washed three times with 5 mL aliquots of ice-cold buffer. Specific binding was defined as the total radioligand bound minus that bound in the presence of 1000 nM SS-14 for SSTR 1, 3, 4, and 5, or 1000 nM MK-678 for SSTR2.
(§5) Using the discussed assays, the inhibition constants (Ki) for the five human somatostatin receptors (hSSTR1-hSSTR5) and the dopamine-2 receptor (hUTII and hDA2) were measured for the exemplified somatostatin-dopamine conjugates, as follows: […]

[2] = target: T2, hsst2 (Homo sapiens, UniProt P30874); experiment: Somatostatin receptor radioligand binding assay, hsst2; conditions: CHO-K1 membranes, [125I]MK-678; read-out: hsst2 Ki
T2 construct: expressed in transfected cells
T2 sequence (P30874 whole entry): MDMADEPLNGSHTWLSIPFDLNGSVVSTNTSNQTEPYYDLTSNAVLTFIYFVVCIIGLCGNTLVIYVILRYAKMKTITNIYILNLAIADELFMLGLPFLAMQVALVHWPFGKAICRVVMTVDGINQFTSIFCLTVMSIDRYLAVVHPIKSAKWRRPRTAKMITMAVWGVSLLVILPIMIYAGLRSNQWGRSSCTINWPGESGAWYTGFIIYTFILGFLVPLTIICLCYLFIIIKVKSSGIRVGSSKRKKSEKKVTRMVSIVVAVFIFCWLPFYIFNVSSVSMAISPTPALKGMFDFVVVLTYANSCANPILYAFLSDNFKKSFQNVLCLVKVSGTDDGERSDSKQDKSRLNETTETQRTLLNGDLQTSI
Protocol: as §1, §2, §4

[3] = target: T3, hsst3 (Homo sapiens, UniProt P32745); experiment: Somatostatin receptor radioligand binding assay, hsst3
T3 construct: expressed in transfected cells
T3 sequence (P32745 whole entry): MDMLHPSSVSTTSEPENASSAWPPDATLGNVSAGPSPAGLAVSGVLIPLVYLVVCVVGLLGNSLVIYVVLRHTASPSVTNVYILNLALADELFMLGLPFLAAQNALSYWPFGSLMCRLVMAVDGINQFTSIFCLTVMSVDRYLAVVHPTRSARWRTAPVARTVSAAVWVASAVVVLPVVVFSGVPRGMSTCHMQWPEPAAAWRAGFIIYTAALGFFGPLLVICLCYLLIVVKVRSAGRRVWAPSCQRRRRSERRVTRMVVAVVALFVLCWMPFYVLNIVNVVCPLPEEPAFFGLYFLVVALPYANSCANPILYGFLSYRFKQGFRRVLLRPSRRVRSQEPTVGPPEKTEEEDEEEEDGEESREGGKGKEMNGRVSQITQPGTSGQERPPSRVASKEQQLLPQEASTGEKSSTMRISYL
Protocol: as §1, §2, §3, §4, §5

[4] = target: T4, hsst5 (Homo sapiens, UniProt P35346); experiment: Somatostatin receptor radioligand binding assay, hsst5; conditions: CHO-K1 membranes, [125I-Tyr11]SS-14
T4 construct: expressed in transfected cells
T4 sequence (P35346 whole entry): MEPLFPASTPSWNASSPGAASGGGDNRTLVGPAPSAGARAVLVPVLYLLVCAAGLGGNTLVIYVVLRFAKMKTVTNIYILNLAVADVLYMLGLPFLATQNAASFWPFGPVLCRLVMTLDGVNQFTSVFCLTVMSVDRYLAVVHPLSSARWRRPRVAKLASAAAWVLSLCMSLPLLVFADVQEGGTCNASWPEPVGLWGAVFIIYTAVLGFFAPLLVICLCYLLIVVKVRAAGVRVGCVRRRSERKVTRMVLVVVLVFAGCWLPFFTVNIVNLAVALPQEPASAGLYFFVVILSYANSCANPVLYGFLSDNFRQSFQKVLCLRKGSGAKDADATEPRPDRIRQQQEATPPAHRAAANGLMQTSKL
Protocol: as §1, §2, §3, §4

[5] = target: T5, hUTII (Homo sapiens, UniProt Q9UKP6); experiment: hUTII inhibition constant; assay type: binding; conditions: read-out: hUTII Ki
T5 sequence (Q9UKP6 1-389): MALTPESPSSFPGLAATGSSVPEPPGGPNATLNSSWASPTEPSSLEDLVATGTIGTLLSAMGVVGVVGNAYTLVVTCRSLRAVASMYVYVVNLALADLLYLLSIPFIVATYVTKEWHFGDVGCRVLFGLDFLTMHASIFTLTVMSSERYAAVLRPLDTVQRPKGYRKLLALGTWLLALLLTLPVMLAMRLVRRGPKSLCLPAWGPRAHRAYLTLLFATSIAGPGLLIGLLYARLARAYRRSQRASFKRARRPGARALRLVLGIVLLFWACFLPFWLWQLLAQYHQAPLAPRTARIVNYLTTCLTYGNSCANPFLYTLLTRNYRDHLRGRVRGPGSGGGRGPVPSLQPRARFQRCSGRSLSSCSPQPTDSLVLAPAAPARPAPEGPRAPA
Protocol: as §5

[6] = target: hDA2; experiment: Dopamine-2 receptor radioligand binding assay; design: species or system human; conditions: [3H]spiperone
Protocol: Specificity and selectivity for the dopamine-2 receptor of the dopamine analogues used to synthesize the somatostatin-dopamine chimers may be determined by a radioligand binding assay as follows.
Crude membranes were prepared by homogenization of frozen rat corpus striatum (Zivic Laboratories, Pittsburgh, Pa., USA) in 20 mL of ice-cold 50 mM Tris-HCl with a Brinkman Polytron cell disrupter (setting 6, 15 sec). Buffer was added to obtain a final volume of 40 mL, and the homogenate was centrifuged in a Sorval SS-34 rotor at 39,000 g for 10 minutes at 0-4° C. The resulting supernatant was decanted and discarded. The pellet was rehomogenized in ice-cold buffer, pre-incubated at 37° C. for 10 min, diluted, and centrifuged as before. The final pellet was resuspended in buffer and held on ice for the receptor binding assay.
For assay, aliquots of the washed membrane preparations and test compounds were incubated for 15 minutes (37° C.) with 0.25 nM [^3HI]spiperone (16.5 Ci.mmol, New England Nuclear, Boston, Mass., USA) in 50 mM Tris HCl, 120 mM NaCl, 5 mM KCl, 2 mM CaCl2, 1 mM MgCl2. The final assay volume was 1.0 mL. The incubations were terminated by rapid filtration through GF/B glass fibre filters using a Brandel filtration manifold. Each tube and filter was then washed three times with 5-mL aliquots of ice-cold buffer. Specific binding was defined as the total radioligand bound minus that bound in the presence of 1000 nM (+) butaclamol.
as §5

[7] = CHO-K1 membranes, [125I-Tyr11]SS-14, read-out: hsst1 Ki
[8] = CHO-K1 membranes, [125I-Tyr11]SS-14, read-out: hsst3 Ki

Compound | Ki [1, 7] | Ki [2] | Ki [3, 8] | Ki ([4]; read-out: hsst5 Ki) | Ki [5] | Ki [6] | Ki [1] | Ki [3] | Ki ([4]; hsst5 Ki)
CCCN1C[C@H](CSCC(=O)N[C@H](Cc2ccccc2)C(=O)NCCOCCOCC(=O)N[C@H](Cc2ccccc2)C(=O)N[C@H]2CSSC[C@@H](C(=O)N[C@H](C(N)=O)[C@@H](C)O)NC(=O)[C@H](C(C)C)NC(=O)[C@H](CCCCN)NC(=O)[C@@H](Cc3c[nH]c4ccccc34)NC(=O)[C@H](Cc3ccc(OC(=O)CSC[C@@H]4C[C@@H]5c6cccc7[nH]cc(c67)C[C@H]5N(CCC)C4)c(I)c3)NC2=O)C[C@@H]2c3cccc4[nH]cc(c34)C[C@H]21 [Example 5] (X1-[dF][AEEA][dF]C[X3][dW]KVCT-NH2; disulfide 4-9) | 1000 nM | 1.65 nM | 1050 nM | 27.6 nM | 105 nM | 15.5 nM |  |  | 
C=CCN1C[C@H](C(=O)N(CCCN(C)CC(=O)N[C@H](Cc2ccccc2)C(=O)N[C@H]2CSSC[C@@H](C(=O)N[C@H](C(N)=O)[C@@H](C)O)NC(=O)[C@H](CC)NC(=O)[C@H](CCCCN)NC(=O)[C@@H](Cc3c[nH]c4ccccc34)NC(=O)[C@H](Cc3ccc(O)cc3)NC2=O)C(=O)NCC)C[C@@H]2c3cccc4[nH]cc(c34)C[C@H]21 [Example 6] | 509 nM | 0.51 nM | 798 nM | 56.5 nM | 677 nM | 65 nM |  |  | 
CCNC(=O)N(CCCN(C)CC(=O)N[C@H](Cc1ccccc1)C(=O)N[C@H]1CSSC[C@@H](C(=O)N[C@H](C(N)=O)[C@@H](C)O)NC(=O)[C@H](CC)NC(=O)[C@H](CCCCN)NC(=O)[C@@H](Cc2c[nH]c3ccccc23)NC(=O)[C@H](Cc2ccc(O)cc2)NC1=O)C(=O)[C@H]1CN[C@@H]2Cc3c[nH]c4cccc(c34)[C@H]2C1 [Example 7] | 345 nM | 0.19 nM | 267 nM | 28.6 nM | 695 nM | 193 nM |  |  | 
CCCN1C[C@H](CSCC(=O)NCCOCCOCC(=O)N[C@H](Cc2ccccc2)C(=O)N[C@H]2CSSC[C@@H](C(=O)N[C@H](C(N)=O)[C@@H](C)O)NC(=O)[C@H](CC)NC(=O)[C@H](CCCCN)NC(=O)[C@@H](Cc3c[nH]c4ccccc34)NC(=O)[C@H](Cc3ccc(O)cc3)NC2=O)C[C@@H]2c3cccc4[nH]cc(c34)C[C@H]21 [Example 8] | 1550 nM | 0.11 nM | 126 nM | 24.5 nM | 167 nM | 86 nM |  |  | 
CCCN1C[C@H](CSCC(=O)NCCCC[C@H](NC(=O)CSC[C@@H]2C[C@@H]3c4cccc5[nH]cc(c45)C[C@H]3N(CCC)C2)C(=O)N[C@H]2CSSC[C@@H](C(=O)N[C@H](C(N)=O)[C@@H](C)O)NC(=O)[C@H](CC)NC(=O)[C@H](CCCCN)NC(=O)[C@@H](Cc3c[nH]c4ccccc34)NC(=O)[C@H](Cc3ccc(O)cc3)NC2=O)C[C@@H]2c3cccc4[nH]cc(c34)C[C@H]21 [Example 9] |  | 0.54 nM |  |  | 635 nM | 8.3 nM | 273 nM | 536 nM | 99.5 nM
CCCN1C[C@H](CSCC(=O)NCCCC[C@H](NC(=O)CSC[C@@H]2C[C@@H]3c4cccc5[nH]cc(c45)C[C@H]3N(CCC)C2)C(=O)N[C@H](Cc2ccc(O)cc2)C(=O)N[C@H](Cc2ccc(O)cc2)C(=O)N[C@H]2CSSC[C@@H](C(=O)N[C@H](C(N)=O)[C@@H](C)O)NC(=O)[C@H](CC)NC(=O)[C@H](CCCCN)NC(=O)[C@@H](Cc3c[nH]c4ccccc34)NC(=O)[C@H](Cc3ccc(O)cc3)NC2=O)C[C@@H]2c3cccc4[nH]cc(c34)C[C@H]21 [Example 10] (X1-K(X1)[dY][dY]CY[dW]K[Abu]CT-NH2; disulfide 4-9) | 549 nM | 0.15 nM | 324 nM | 26.5 nM | 177 nM | 8.22 nM |  |  | 
CCCN1C[C@H](CSCC(=O)NCCCC[C@H](NC(C)=O)C(=O)N[C@H](Cc2ccc(O)cc2)C(=O)N[C@H](Cc2ccc(O)cc2)C(=O)N[C@H]2CSSC[C@@H](C(=O)N[C@H](C(N)=O)[C@@H](C)O)NC(=O)[C@H](CC)NC(=O)[C@H](CCCCN)NC(=O)[C@@H](Cc3c[nH]c4ccccc34)NC(=O)[C@H](Cc3ccc(O)cc3)NC2=O)C[C@@H]2c3cccc4[nH]cc(c34)C[C@H]21 [Example 11] (Ac-K(X1)[dY][dY]CY[dW]K[Abu]CT-NH2; disulfide 4-9) | 437 nM | 0.04 nM | 162 nM | 8.91 nM | 64.4 nM | 119 nM |  |  | 
CCCN1C[C@H](CSCC(=O)N[C@H](Cc2ccccc2)C(=O)N[C@H]2CSSC[C@@H](C(=O)N[C@H](C(N)=O)[C@@H](C)O)NC(=O)[C@H]([C@@H](C)O)NC(=O)[C@H](CCCCN)NC(=O)[C@@H](Cc3c[nH]c4ccccc34)NC(=O)[C@H](Cc3ccc(O)c(I)c3)NC2=O)C[C@@H]2c3cccc4[nH]cc(c34)C[C@H]21 [Example 12] | 602 nM |  | 51.5 nM | 4.1 nM | 676 nM | 25.2 nM |  |  | 
CCCN1C[C@H](CSCC(=O)NCCCC[C@@H](NC(=O)CSC[C@@H]2C[C@@H]3c4cccc5[nH]cc(c45)C[C@H]3N(CCC)C2)C(=O)N[C@H](Cc2ccccc2)C(=O)N[C@H]2CSSC[C@@H](C(=O)N[C@H](C(N)=O)[C@@H](C)O)NC(=O)[C@H]([C@@H](C)O)NC(=O)[C@H](CCCCN)NC(=O)[C@@H](Cc3c[nH]c4ccccc34)NC(=O)[C@H](Cc3ccc(O)c(I)c3)NC2=O)C[C@@H]2c3cccc4[nH]cc(c34)C[C@H]21 [Example 13] | 907 nM |  | 196 nM | 10.7 nM |  | 15.2 nM |  |  | 
CCCN1C[C@H](CSCC(=O)NCCCC[C@@H](NC(C)=O)C(=O)N[C@H](Cc2ccccc2)C(=O)N[C@H]2CSSC[C@@H](C(=O)N[C@H](C(N)=O)[C@@H](C)O)NC(=O)[C@H]([C@@H](C)O)NC(=O)[C@H](CCCCN)NC(=O)[C@@H](Cc3c[nH]c4ccccc34)NC(=O)[C@H](Cc3ccc(O)c(I)c3)NC2=O)C[C@@H]2c3cccc4[nH]cc(c34)C[C@H]21 [Example 14] | 1340 nM |  | 70.3 nM | 2.68 nM | 1510 nM | 44.3 nM |  |  | 
